In publication PMC4640066 (Nature Communications, 2015) one finds Anaphase duration data, which are given here for one molecule.

The test has as its system HeLa cells. As to the kind of experiment: Anaphase spindle elongation, time-lapse anaphase duration. It counts as cell-based, human. Conditions: 30 μM, after MG132 washout, 1 μM reversine, control 18.6 min. The procedure:
HeLa cells expressing mCherry-H2B and EGFP-α-tubulin, HeLa ‘Kyoto' cell line stably expressing CEP55-LAPtag (a kind gift from Dr A.A. Hyman) and HeLa cells expressing RFP-H2B and GFP-LifeAct (a kind gift from Dr J. Ellenberg) were cultured in DMEM+GlutaMAX (Gibco) supplemented with 10% FBS, 100 U ml^−1 penicillin, 100 μg ml^−1 streptomycin and 1 mM sodium pyruvate in a humidified atmosphere containing 5% CO2. To observe the transition from metaphase to anaphase, telophase and cytokinesis, cells were arrested at metaphase by sequential treatment of STLC and MG132. After MG132 removal by washing of cells with medium three times, the medium was changed to Live Cell Imaging Solution (Molecular Probes Life Technologies) supplemented as described above containing 1 μM of MPS1 inhibitor reversine and either DMSO or 30 μM of gatastatin. Time-lapse observation was performed at 37 °C using the DeltaVision Olympus IX71 microscope (Applied Precision) equipped with CoolSNAP HQ camera (Photometrics). Images were taken every 3 min with 12 z-stacks (1 μm per stack) for 3 h. The anaphase duration (between chromosome separation and start of midbody formation) was calculated.

Structures are written as SMILES.

Molecule `COc1cc2c(=O)c(-c3cc(OC)c4c(c3OC)OCO4)coc2cc1OCc1ccccc1` [Gatastatin, O^7-demethylbenzyl AG1] showed an Anaphase duration of 32.4 min.
